Ten compounds from ChEMBL document CHEMBL1154361, “Oxiranylmethyloxy or thiiranylmethyloxy-azaxanthones and -acridone analogues as potential topoisomerase I inhibitors” (Bioorg Med Chem Lett, 2009) can be followed below.

Structures are written as SMILES. Where a name gives a salt, the structure may show the parent alone. Some results are limits rather than exact numbers.

In one test the test system is DU-145. The experiment in a line: Cytotoxicity against human DU145 cells by MTT assay. The class given is functional, cell-based. For orientation: Formazan colour is commonly taken as a measure of viable cells.
The subject of a further test is MDA-MB-231. Kind of test: Cytotoxicity against human MDA-MB-231 cells by MTT assay. The format is functional, cell-based.
In the next test the test system is HT-29. The experiment in a line: Cytotoxicity against human HT-29 cells by MTT assay. The class given is functional, cell-based.
The target in test [1] is T1, DNA topoisomerase 1 (Homo sapiens) (UniProt P11387).
T1 sequence (whole entry): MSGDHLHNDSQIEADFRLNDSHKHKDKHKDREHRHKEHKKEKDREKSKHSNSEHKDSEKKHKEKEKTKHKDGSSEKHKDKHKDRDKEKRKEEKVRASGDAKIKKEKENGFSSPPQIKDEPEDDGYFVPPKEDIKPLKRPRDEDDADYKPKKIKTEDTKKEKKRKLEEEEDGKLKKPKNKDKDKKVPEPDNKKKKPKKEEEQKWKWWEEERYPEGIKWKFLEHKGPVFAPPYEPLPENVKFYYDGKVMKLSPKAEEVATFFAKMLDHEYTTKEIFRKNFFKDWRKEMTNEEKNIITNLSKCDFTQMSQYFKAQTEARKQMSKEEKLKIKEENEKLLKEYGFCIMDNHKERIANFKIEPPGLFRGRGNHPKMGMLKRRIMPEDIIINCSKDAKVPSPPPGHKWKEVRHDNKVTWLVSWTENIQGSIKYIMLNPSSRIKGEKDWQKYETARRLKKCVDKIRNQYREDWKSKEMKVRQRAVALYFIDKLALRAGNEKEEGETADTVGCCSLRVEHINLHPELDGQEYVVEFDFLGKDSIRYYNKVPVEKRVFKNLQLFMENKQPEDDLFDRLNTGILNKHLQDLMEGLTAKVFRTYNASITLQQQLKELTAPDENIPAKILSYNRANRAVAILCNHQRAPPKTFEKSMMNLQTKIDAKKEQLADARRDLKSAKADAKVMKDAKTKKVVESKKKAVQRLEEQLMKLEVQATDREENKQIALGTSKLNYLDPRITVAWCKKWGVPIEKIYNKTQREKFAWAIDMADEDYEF
The experiment in a line: Inhibition of human topoisomerase 1 at 20 uM.

The test system of the next test is HeLa. The experiment in a line: Cytotoxicity against human HeLa cells by MTT assay. The format is functional, cell-based.
Test [2] addresses DNA topoisomerase 2-alpha (Homo sapiens) (UniProt P11388). Kind of test: Inhibition of human topoisomerase 2 at 100 uM.
Test [3] has the same target. Kind of test: Inhibition of human topoisomerase 2 at 20 uM.
Another test has as its system HL-60. Kind of test: Cytotoxicity against human HL60 cells by MTT assay. The format is functional, cell-based.
The target in test [4] is T1, DNA topoisomerase 1 (Homo sapiens). Kind of test: Inhibition of human topoisomerase 1 at 100 uM.

Chain of DNA topoisomerase 2-alpha (Homo sapiens) (P11388 whole entry): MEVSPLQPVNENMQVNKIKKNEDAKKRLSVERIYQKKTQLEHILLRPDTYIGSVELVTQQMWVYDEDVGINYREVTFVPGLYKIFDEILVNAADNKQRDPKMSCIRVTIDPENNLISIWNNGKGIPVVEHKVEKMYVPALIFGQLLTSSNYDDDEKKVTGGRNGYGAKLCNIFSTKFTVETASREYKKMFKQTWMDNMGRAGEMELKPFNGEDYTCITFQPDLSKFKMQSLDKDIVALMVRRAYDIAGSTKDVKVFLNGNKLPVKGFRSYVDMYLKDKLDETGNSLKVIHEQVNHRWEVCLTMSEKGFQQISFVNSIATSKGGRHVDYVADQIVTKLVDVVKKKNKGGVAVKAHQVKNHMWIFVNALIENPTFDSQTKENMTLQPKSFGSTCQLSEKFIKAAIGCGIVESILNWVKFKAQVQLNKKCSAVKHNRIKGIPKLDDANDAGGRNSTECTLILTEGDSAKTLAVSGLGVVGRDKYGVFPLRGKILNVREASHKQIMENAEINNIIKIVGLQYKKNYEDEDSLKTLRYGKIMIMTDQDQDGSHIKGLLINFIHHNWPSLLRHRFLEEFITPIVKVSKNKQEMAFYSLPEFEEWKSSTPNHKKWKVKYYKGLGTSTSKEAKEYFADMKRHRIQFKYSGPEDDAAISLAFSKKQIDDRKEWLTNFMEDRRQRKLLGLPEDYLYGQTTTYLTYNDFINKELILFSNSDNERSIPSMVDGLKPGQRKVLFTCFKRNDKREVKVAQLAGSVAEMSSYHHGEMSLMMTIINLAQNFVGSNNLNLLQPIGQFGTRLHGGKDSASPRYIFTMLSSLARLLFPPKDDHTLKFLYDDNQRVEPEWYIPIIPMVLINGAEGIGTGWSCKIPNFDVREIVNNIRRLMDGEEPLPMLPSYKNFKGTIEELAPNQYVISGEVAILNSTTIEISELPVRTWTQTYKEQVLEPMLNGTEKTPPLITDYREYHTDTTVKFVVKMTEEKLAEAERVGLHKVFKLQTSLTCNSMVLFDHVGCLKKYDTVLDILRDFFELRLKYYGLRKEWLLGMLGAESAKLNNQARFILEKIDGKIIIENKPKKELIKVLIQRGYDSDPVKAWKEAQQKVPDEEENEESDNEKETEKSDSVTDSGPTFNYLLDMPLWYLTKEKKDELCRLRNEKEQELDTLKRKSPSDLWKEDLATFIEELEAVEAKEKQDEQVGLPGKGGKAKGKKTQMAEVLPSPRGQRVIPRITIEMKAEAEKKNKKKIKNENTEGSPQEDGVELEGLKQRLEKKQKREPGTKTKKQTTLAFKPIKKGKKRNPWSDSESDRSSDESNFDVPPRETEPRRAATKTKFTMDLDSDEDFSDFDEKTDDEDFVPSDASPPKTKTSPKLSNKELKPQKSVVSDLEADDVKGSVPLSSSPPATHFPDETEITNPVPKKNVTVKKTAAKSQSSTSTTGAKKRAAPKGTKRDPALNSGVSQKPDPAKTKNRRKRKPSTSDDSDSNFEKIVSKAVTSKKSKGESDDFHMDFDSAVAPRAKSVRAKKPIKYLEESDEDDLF

For `O=c1c2ccccc2[nH]c2cc(OCC3CS3)cc(OCC3CS3)c12` (centres undefined), the IC50 is 23.2 µM in the test with DU-145; 8.02 µM with MDA-MB-231; 23.2 µM in the test on HT-29; 11.1 µM in the test on HeLa; 7.73 µM in the test on HL-60. For the same compound, the inhibition in [1] turned out to be 0%; in test [2], 6.9%; in [3], 8.5%; in test [4], 0%.

For the compound `O=c1c2cccnc2oc2cc(OCC3CS3)cc(O)c12` (centres undefined), the IC50 is 15.8 µM in the test with DU-145; 18.2 µM in the test on MDA-MB-231; over 50 µM with HT-29; 6.9 µM in the test on HeLa; 20.1 µM in the test on HL-60. The inhibition in test [1] worked out at 26.7%; in test [2] it was 19.5%; in [3], 9.2%; in test [4] it was 50.3%.

For the compound `O=c1c2cccnc2oc2cc(OCC3CO3)cc(O)c12` (centres undefined), the IC50 with DU-145 came to 8.11 µM; in the test on MDA-MB-231, 24.3 µM; in the test on HT-29, 26.3 µM; in the test on HeLa it was 22.1 µM; in the test on HL-60, 24.8 µM. The inhibition worked out at 1.8% in test [1], 30.3% in test [2], 8.3% in [3] and 0% in [4].

`O=c1c2ccccc2[nH]c2cc(OCC3CO3)cc(OCC3CO3)c12` (centres undefined): the IC50 with DU-145 is 30.9 µM; in the test on MDA-MB-231, 28.9 µM; in the test with HT-29 it was 29.3 µM; in the test on HeLa it was over 50 µM; in the test on HL-60, 22 µM. Also, the inhibition in test [1] turned out to be 2.5%; in test [2], 13.2%; in test [3] it was 8.7%; in test [4] it was 0%.

For `COc1cccc2c1C(=O)c1c(O)c3c(c(O)c1C2=O)C[C@@](O)(C(=O)CO)C[C@@H]3O[C@H]1C[C@H](N)[C@H](O)[C@H](C)O1` [DOXORUBICIN HYDROCHLORIDE], the IC50 in the test with DU-145 is 2.54 µM; with MDA-MB-231 it was 1.67 µM; in the test on HT-29, 3.9 µM; with HeLa, 1.08 µM; with HL-60, 0.88 µM.

For the compound `O=c1c2ccccc2[nH]c2cc(OCC3CS3)cc(O)c12` (centres undefined), the IC50 with DU-145 is 23 µM; with MDA-MB-231, 21.4 µM; in the test on HT-29, 33 µM; with HeLa it was over 50 µM; in the test on HL-60, 23 µM. Also, the inhibition in [1] was determined as 0%; in [2] it was 8.7%; in test [3], 8.1%; in [4], 2.3%.

Consider `O=c1c2cccnc2oc2cc(OCC3CS3)cc(OCC3CS3)c12` (centres undefined), for which the IC50 in the test on DU-145 is 21 µM; with MDA-MB-231, 13 µM; with HT-29 it was over 50 µM; in the test with HeLa, 9.96 µM; with HL-60, 10.5 µM. Further, the inhibition in test [1] was found to be 5.2%; in test [2] it was 6.7%; in test [3], 8.6%; in test [4], 0%.

For `COc1cc([C@@H]2c3cc4c(cc3[C@@H](O[C@@H]3O[C@@H]5CO[C@@H](C)O[C@H]5[C@H](O)[C@H]3O)[C@H]3COC(=O)[C@H]23)OCO4)cc(OC)c1O` [ETOPOSIDE], the IC50 was 5.16 µM in the test on DU-145; 3.5 µM with MDA-MB-231; 6.32 µM in the test with HT-29; 2.15 µM in the test with HeLa; 0.93 µM with HL-60. The compound also returned an inhibition in test [3] of 13.4%.

With `CC[C@@]1(O)C(=O)OCc2c1cc1n(c2=O)Cc2cc3ccccc3nc2-1` [CAMPTOTHECIN], the IC50 was 1 µM in the test on DU-145; 0.68 µM in the test on MDA-MB-231; 1.07 µM in the test with HT-29; 0.58 µM in the test on HeLa; 0.067 µM in the test with HL-60.

For the compound `O=c1c2ccccc2[nH]c2cc(OCC3CO3)cc(O)c12` (centres undefined), the IC50 in the test with DU-145 was over 50 µM; in the test on MDA-MB-231 it was 18.6 µM; with HT-29 it was over 50 µM; in the test with HeLa it was over 50 µM; with HL-60, 12.5 µM. Besides, the inhibition was found to be 10.8% in test [1], 18.1% in test [2], 12.9% in test [3] and 9.1% in [4].

In general, IC50 refers to the midpoint of a concentration-inhibition curve. One may read the inhibition as how much of the control response was suppressed. Higher therefore signals a strong effect.
